Results as given in patent US9694027B2, “Pyrazole derivative and use thereof for medical purposes” (KISSEI PHARMACEUTICAL CO. LTD., priority 2012, dated 2017).

Key:
healthy adult males = test: Multiple-dose study in healthy adult males (Example 4); type: in vivo, human; settings: for Daily frequency of bowel movement after the administration, Mean: once daily Days 1 and 13, 3 times daily Days 3 to 12, daily mean during fifteen days, 8 subjects, Placebo 1.0; for Number of subject with gastrointestinal disorders: Abdominal pain / Number of subject with gastrointestinal disorders: Diarrhea: of 8 subjects; for Number of subject with gastrointestinal disorders: Abdominal pain: Placebo 0; for Number of subject with gastrointestinal disorders: Diarrhea: Placebo 3
Method: Compound 2 at a dose of 2, 5, 10 or 20 mg (free drug equivalent), a placebo, or miglitol at a dose of 50 mg was repetitively administered orally once daily just immediately before breakfast on administration Days 1 and 13, and 3 times daily just immediately before every meal on administration Days 3 to 12 to healthy adult males. For the administration of Compound 2, tablets containing 1, 5 or 10 mg in free drug equivalent were used. The test period was set between administration Day 1 and Day 15. Frequencies of bowel movements were checked during consultation by a doctor, and the adverse events (gastrointestinal disorders) were defined when an abnormal finding (diarrhea or loose stool) was seen based on the stool form and the finding. In this regard, the frequencies of bowel movements in Table 8 show the daily means during fifteen days (time/day).

[1] = tested on: rat model of low-fiber diet-induced constipation; test: Rat model of low-fiber diet-induced constipation (Example 2); settings: for Fecal weight within 24 hours after the administration: followed by mixed carbohydrate, n=4, Control group 1 0.53, Normal feed group 8.33
Method: Compound 2 was weighed and was dissolved in distilled water at preparation concentrations of 3, 10 and 30 mg/mL as the free drug to prepare test compounds.
0.5% methylcellulose (0.5% MC) was used as a vehicle for preparation of lubiprostone. Lubiprostone was weighed and was suspended in 0.5% MC at preparation concentrations of 1, 3 and 10 mg/mL to prepare control substances.
Magnesium sulfate (MgSO4) (Wako pure chemical) was weighed and was dissolved in distilled water at a preparation concentrations of 200 mg/mL to prepare a positive control substance.
A soluble starch, sucrose and lactose monohydrate were weighed at a rate of 6:3:1 and were dissolved in distilled water which was approximately 80% of the amounts of preparation on heating, and then the mixture was added with distilled water to prepare 0.4 g/mL solution of mixed carbohydrate.
A low-fiber diet was prepared based on the literature (Kakino et al. BMC Complementary and Alternative Medicine 2010, 10: 68).
Rats were fed on the low-fiber diet for 1-2 weeks to induce constipation.
Compound 2 (3 mg/kg, 10 mg/kg or 30 mg/kg as free drug), lubiprostone (1 mg/kg, 3 mg/kg or 10 mg/kg), MgSO4 (2000 mg/kg) or a vehicle (distilled water: Control group 1, 0.5% MC: Control group 2) was administered orally at around 9 a.m. using a 1 mL glass syringe and a stomach tube. Then, 0.4 g/mL solution of mixed carbohydrate was administered orally at 2 mL/body to Control group 1 and the groups administered with Compound 2. Distilled water was administered to the normal feed group.
The sum of the fecal weights at the collection times was set as the fecal weight at 24 hours after the administration.
The statistical analysis was made by testing the uniformity of variance using Bartlett's method, and multiple comparison between Control group 1 and the group administered with Compound 2 or Control group 2 and the group administered with lubiprostone was made using Dunnett's method when variance was uniform respectively, and multiple comparison was made using Steel's method when variance was not uniform. In each case, significance level<5% was considered as significant difference.

[2] = tested on: Loperamide-induced dog constipation model; test: Loperamide-induced dog constipation model (Example 1); type: in vivo; settings: for Dry fecal weight within 24 hours after the administration / Wet fecal weight within 24 hours after the administration / Frequency of bowel movement within 24 hours after the administration: mean of 10 dogs; for Dry fecal weight within 24 hours after the administration: Control group 1.0, Normal group 47.1; for Wet fecal weight within 24 hours after the administration: Control group 2.8, Normal group 136.2; for Frequency of bowel movement within 24 hours after the administration: observation at 17, 21, 24 hours, Control group 0.2, Normal group 2.1
Method: Lubiprostone (TLC Pharma Chem) was weighed and was suspended in 0.5% methylcellulose at preparation concentrations of 0.05 and 0.35 mg/mL to prepare control substances.
Loperamide hydrochloride (Wako pure chemical) was weighed at 0.3, 0.5, 1.0, 2.0, 4.0 or 8.0 mg/kg for each animal and was filled into a gelatin capsule.
Loperamide hydrochloride which was filled into a gelatin capsule was orally administered to dogs (beagle, male, 13-14 months old, 10 dogs, Kitayama-labesu). The dosage was increased from 0.3 mg/kg, and was set at 2.0, 4.0 or 8.0 mg/kg based on the bowel movement condition of each dog.
Tests were performed as a full cross-over trial. More than 5-day washout period was provided between each test, and a recovery of stool form was identified, and then the next test was performed.
A gelatin capsule which was filled with loperamide hydrochloride was administered orally at around 9 a.m. on the first and second days in each test.
The stool form of feces was scored in seven categories based on Bristol Stool Form Scale. The collected feces were dried fully, and then the feces were weighed, and it was set as the dry fecal weight.

Compound: Cc1cc(OCCCNCC(C)(C)C(N)=O)ccc1Cc1c(O[C@@H]2O[C@H](CO)[C@@H](O)[C@H](O)[C@H]2O)n[nH]c1C(C)C.Cc1cc(OCCCNCC(C)(C)C(N)=O)ccc1Cc1c(O[C@@H]2O[C@H](CO)[C@@H](O)[C@H](O)[C@H]2O)n[nH]c1C(C)C.O=C(O)CCCCCCCCC(=O)O [Compound 2, bis[3-(3-{4-[3-(β-D-glucopyranosyloxy)-5-isopropyl-1H-pyrazol-4-ylmethyl]-3-methylphenoxy}propylamino)-2,2-dimethylpropionamide]monosebacate]
- Daily frequency of bowel movement after the administration, Mean (healthy adult males; 2 mg): 1.4 time/day
- Daily frequency of bowel movement after the administration, Mean (healthy adult males; 5 mg): 1.1 time/day
- Daily frequency of bowel movement after the administration, Mean (healthy adult males; 10 mg): 2.0 time/day
- Daily frequency of bowel movement after the administration, Mean (healthy adult males; 20 mg): 1.7 time/day
- Number of subject with gastrointestinal disorders: Abdominal pain (healthy adult males; multiple dose 2 mg): 0
- Number of subject with gastrointestinal disorders: Diarrhea (healthy adult males; multiple dose 2 mg): 6
- Number of subject with gastrointestinal disorders: Abdominal pain (healthy adult males; multiple dose 5 mg): 0
- Number of subject with gastrointestinal disorders: Diarrhea (healthy adult males; multiple dose 5 mg): 5
- Number of subject with gastrointestinal disorders: Abdominal pain (healthy adult males; multiple dose 10 mg): 0
- Number of subject with gastrointestinal disorders: Diarrhea (healthy adult males; multiple dose 10 mg): 5
- Number of subject with gastrointestinal disorders: Abdominal pain (healthy adult males; multiple dose 20 mg): 1
- Number of subject with gastrointestinal disorders: Diarrhea (healthy adult males; multiple dose 20 mg): 6
- Fecal weight within 24 hours after the administration ([1]; 3 mg/kg as free drug oral): 1.20 g
- Fecal weight within 24 hours after the administration ([1]; 10 mg/kg as free drug oral): 4.20 g
- Fecal weight during 24 hours versus Control group ([1]; 10 mg/kg or more, versus Control group 1, significance level <5%): significantly higher than in each Control group
- Fecal weight within 24 hours after the administration ([1]; 30 mg/kg as free drug oral): 4.93 g
- Dose dependence of fecal weight during 24 hours after the administration ([1]; oral): dose-dependently increased
- Dry fecal weight within 24 hours after the administration ([2]; 1 mg/kg oral): 10.4 g
- Wet fecal weight within 24 hours after the administration ([2]; 1 mg/kg oral): 29.5 g
- Frequency of bowel movement within 24 hours after the administration ([2]; 1 mg/kg oral): 0.5 time
- Wet fecal weight, dry weight and frequency of bowel movements versus Control group ([2]; 3 mg/kg or more, significance level <5%): significantly higher than in Control group
- Dry fecal weight within 24 hours after the administration ([2]; 3 mg/kg oral): 21.6 g
- Wet fecal weight within 24 hours after the administration ([2]; 3 mg/kg oral): 60.9 g
- Frequency of bowel movement within 24 hours after the administration ([2]; 3 mg/kg oral): 1.2 time
- Dry fecal weight within 24 hours after the administration ([2]; 10 mg/kg oral): 27.3 g
- Wet fecal weight within 24 hours after the administration ([2]; 10 mg/kg oral): 77.2 g
- Frequency of bowel movement within 24 hours after the administration ([2]; 10 mg/kg oral): 1.5 time
- Increases of loose stool and diarrhea ([2]; all doses of this test): not observed
- Dose dependence of wet fecal weight, dry weight and frequency of bowel movements ([2]; within 24 hours after oral administration): dose-dependently increased
